In series [1] the test system is Staphylococcus aureus. Nature of the series: Antibacterial activity against Staphylococcus aureus ATCC 25923 assessed as reduction in microbial growth after 16 to 18 hrs by microbroth dilution method. Type of series: functional. The conditions noted are these: time 16-18 hrs.
The test system of series [2] is Staphylococcus aureus. As to the kind of experiment: Antibacterial activity against methicillin resistant Staphylococcus aureus ATCC 43300 assessed as reduction in microbial growth after 16 to 18 hrs by microbroth dilution method. The conditions noted are these: time 16-18 hrs. It is filed as functional. On the technique in general: In broth dilution the organism is exposed to a series of concentrations in liquid medium.

In series [3] the test system is Staphylococcus aureus. Nature of the series: Antibacterial activity against methicillin resistant Staphylococcus aureus ATCC 62202 assessed as reduction in microbial growth after 16 to 18 hrs by microbroth dilution method. Type of series: functional. The conditions noted are these: time 16-18 hrs.
In series [4] the test system is Staphylococcus aureus. Nature of the series: Antibacterial activity against methicillin resistant Staphylococcus aureus ATCC 52056 assessed as reduction in microbial growth after 16 to 18 hrs by microbroth dilution method. Type of series: functional. The settings on record: time 16-18 hrs.
In series [5] the test system is Staphylococcus aureus. Nature of the series: Antibacterial activity against methicillin resistant Staphylococcus aureus ATCC513045 assessed as reduction in microbial growth after 16 to 18 hrs by microbroth dilution method. Type of series: functional. The settings on record: time 16-18 hrs.
Series [6] concerns Staphylococcus aureus. As to the kind of experiment: Antibacterial activity against methicillin resistant Staphylococcus aureus ATCC515992 assessed as reduction in microbial growth after 16 to 18 hrs by microbroth dilution method. Type of series: functional. The conditions noted are these: time 16-18 hrs.
Series [7] deals with Staphylococcus aureus. Nature of the series: Antibacterial activity against methicillin resistant Staphylococcus aureus ATCC49800 assessed as reduction in microbial growth after 16 to 18 hrs by microbroth dilution method. It is filed as functional. The settings on record: time 16-18 hrs.
Series [8] has as its system Staphylococcus aureus. Nature of the series: Antibacterial activity against methicillin resistant Staphylococcus aureus ATCC49025 assessed as reduction in microbial growth after 16 to 18 hrs by microbroth dilution method. Type of series: functional. The settings on record: time 16-18 hrs.
Series [9] relates to Staphylococcus aureus. Nature of the series: Antibacterial activity against methicillin resistant Staphylococcus aureus ATCC48073 assessed as reduction in microbial growth after 16 to 18 hrs by microbroth dilution method. It is filed as functional. The settings on record: time 16-18 hrs.
The subject of series [10] is Staphylococcus aureus. As to the kind of experiment: Antibacterial activity against methicillin resistant Staphylococcus aureus ATCC48966 assessed as reduction in microbial growth after 16 to 18 hrs by microbroth dilution method. It is filed as functional. The settings on record: time 16-18 hrs.
Series [11] deals with Staphylococcus aureus. Nature of the series: Antibacterial activity against methicillin resistant Staphylococcus aureus ATCC49008 assessed as reduction in microbial growth after 16 to 18 hrs by microbroth dilution method. It is filed as functional. The settings on record: time 16-18 hrs.
Series [12] has as its system Staphylococcus aureus. As to the kind of experiment: Antibacterial activity against methicillin resistant Staphylococcus aureus ATCC48706 assessed as reduction in microbial growth after 16 to 18 hrs by microbroth dilution method. Type of series: functional. The settings on record: time 16-18 hrs.
Series [13] concerns Escherichia coli. Nature of the series: Antibacterial activity against Escherichia coli ATCC25922 assessed as reduction in microbial growth after 16 to 18 hrs by microbroth dilution method. It is filed as functional. The settings on record: ATCC 25922, time 16-18 hrs.
Series [14] concerns Pseudomonas aeruginosa. As to the kind of experiment: Antibacterial activity against Pseudomonas aeruginosa ATCC27853 assessed as reduction in microbial growth after 16 to 18 hrs by microbroth dilution method. The settings on record: time 16-18 hrs. It is filed as functional.
Series [15] deals with Enterococcus faecalis. Nature of the series: Antibacterial activity against Enterococcus faecalis ATCC29212 assessed as reduction in microbial growth after 16 to 18 hrs by microbroth dilution method. It is filed as functional. The conditions noted are these: ATCC 29212, time 16-18 hrs.
Series [16] has as its system RAW264.7. As to the kind of experiment: Cytotoxicity against mouse RAW264.7 cells assessed as cell viability at 10 ug/ml measured after 24 hrs by MTT assay. The conditions noted are these: raw264.7, 24 h, dose 10 µg/ml. It is filed as cell-based. Background: Tetrazolium dyes change colour on reduction, which living cells bring about.
For series [17], the system named is L02. As to the kind of experiment: Cytotoxicity against human L02 cells assessed as cell viability at 10 ug/ml measured after 24 hrs by MTT assay. It is filed as cell-based. The conditions noted are these: l02, 24 h, dose 10 µg/ml.

As for `CC(C)=CCc1c(OCCC(F)(F)F)cc(/C=C/c2ccc(F)cc2)c(C(=O)O)c1O`, the MIC (in general, the lowest concentration found to suppress growth) in series [1] came to 4 µg/mL; in series [2], 4 µg/mL; in [3], 4 µg/mL; in series [4] it was 4 µg/mL; in series [5] it was 2 µg/mL; in [6], 4 µg/mL. The MIC in series [7], in series [8], in series [9], in [10], in series [11] and in [12] was 4 µg/mL in each case. The MIC in [13], in series [14] and in series [15] was over 32 µg/mL each time. Also, the Activity entry in series [16] and in [17] was “Toxic” each time.
Turning to `CC(C)=CCc1c(OCC(F)F)cc(/C=C/c2ccc(F)cc2)c(C(=O)O)c1O`, the minimum inhibitory concentration (MIC) in series [1] came to 4 µg/mL; in [2], 4 µg/mL; in series [3], 4 µg/mL; in series [4], 2 µg/mL; in series [5] it was 4 µg/mL; in [6], 4 µg/mL. Further, the MIC in series [7], in [8], in series [9], in series [10], in series [11] and in series [12] was 4 µg/mL in each case. The MIC in series [13], in [14] and in series [15] was over 32 µg/mL in each case. For the same molecule, the Activity entry in [16] and in [17] was “Toxic” each time.
For `CC(C)=CCc1c(OC2CCCCCC2)cc(/C=C/c2ccc(F)cc2)c(C(=O)O)c1O`, the MIC was found to be 2 µg/mL in series [1]; 1 µg/mL in series [2]; 2 µg/mL in [3]; 1 µg/mL in [4]; 2 µg/mL in series [5]; 2 µg/mL in series [6]. Also, the MIC is 4 µg/mL in series [7]; 2 µg/mL in series [8]; 2 µg/mL in series [9]; 2 µg/mL in series [10]; 2 µg/mL in series [11]; 2 µg/mL in series [12]. The MIC in [13], in series [14] and in [15] was over 32 µg/mL each time. Also, the Activity result in series [16] and in [17] was “Toxic” each time.
Regarding `CC(C)=CCc1c(OCCCC(F)(F)F)cc(/C=C/c2ccc(C(F)(F)F)cc2)c(C(=O)O)c1O`, the MIC in series [1] is 2 µg/mL; in series [2], 1 µg/mL; in series [3] it was 4 µg/mL; in series [4] it was 2 µg/mL; in series [5] it was 2 µg/mL; in series [6], 2 µg/mL. Moreover, the MIC in series [7], in series [8], in [9], in series [10], in series [11] and in series [12] was 4 µg/mL throughout. For the same molecule, the MIC in series [13], in [14] and in series [15] was over 32 µg/mL throughout. Also, the Activity entry in series [16] and in series [17] was “Toxic” in each case.
On to `CCCC(CC)Oc1cc(/C=C/c2ccc(F)cc2)c(C(=O)O)c(O)c1CC=C(C)C` (configuration not stated), for which the MIC was found to be 2 µg/mL in series [1]; 1 µg/mL in series [2]; 2 µg/mL in series [3]; 2 µg/mL in [4]; 2 µg/mL in series [5]; 2 µg/mL in series [6]. The MIC was 2 µg/mL in series [7]; 2 µg/mL in series [8]; 4 µg/mL in series [9]; 2 µg/mL in series [10]; 2 µg/mL in series [11]; 4 µg/mL in series [12]. Besides, the MIC in series [13], in [14] and in series [15] was over 32 µg/mL in each case. Moreover, the Activity result in series [16] and in series [17] was “Toxic” each time.
As for `CC(C)=CCc1c(OCCC(F)(F)F)cc(/C=C/c2ccc(C(F)(F)F)cc2)c(C(=O)O)c1O`, the MIC in [1], in series [2], in series [3], in [4], in [5] and in series [6] was 2 µg/mL throughout. In addition, the MIC in [7], in series [8], in [9], in [10], in series [11] and in series [12] was 4 µg/mL in each case. The MIC in series [13], in series [14] and in [15] was over 32 µg/mL throughout. Moreover, the Activity entry in [16] and in series [17] was “Toxic” throughout.
With `CCC(CC)Oc1cc(/C=C/c2ccc(F)cc2)c(C(=O)O)c(O)c1CC=C(C)C`, the MIC in series [1] is 2 µg/mL; in [2], 2 µg/mL; in series [3], 2 µg/mL; in [4], 2 µg/mL; in [5], 2 µg/mL; in series [6], 4 µg/mL. For the same molecule, the MIC in series [7] turned out to be 2 µg/mL; in series [8] it was 2 µg/mL; in series [9], 4 µg/mL; in [10], 2 µg/mL; in series [11] it was 2 µg/mL; in [12], 2 µg/mL. For the same molecule, the MIC in series [13], in [14] and in series [15] was over 32 µg/mL in each case. For the same molecule, the Activity entry in series [16] and in series [17] was “Toxic” each time.
For `CC(C)=CCc1c(OCc2ccccc2)cc(/C=C/c2ccc(F)cc2)c(C(=O)O)c1O`, the MIC in [1] stood at 4 µg/mL; in series [2], 32 µg/mL; in series [3] it was 4 µg/mL; in series [4], 4 µg/mL; in [5], 4 µg/mL; in [6], 4 µg/mL. The MIC in series [7], in [8], in series [9], in series [10], in series [11] and in series [12] was 4 µg/mL each time. Also, the MIC in series [13], in [14] and in [15] was over 32 µg/mL each time. Besides, the Activity entry in series [16] and in series [17] was “Toxic” throughout.
Regarding `CCOc1cc(/C=C/c2ccc(C(F)(F)F)cc2)c(C(=O)O)c(O)c1CC=C(C)C`, the MIC in [1] amounted to 2 µg/mL; in series [2] it was 1 µg/mL; in series [3], 1 µg/mL; in [4] it was 1 µg/mL; in series [5], 2 µg/mL; in series [6], 2 µg/mL. The MIC in series [7], in series [8], in series [9], in [10], in series [11] and in series [12] was 2 µg/mL each time. The MIC in [13], in series [14] and in series [15] was over 32 µg/mL in each case. Besides, the Activity result in series [16] and in series [17] was “Toxic” each time.
As to `CC(C)=CCc1c(OC2CCCCCC2)cc(/C=C/c2ccc(C(F)(F)F)cc2)c(C(=O)O)c1O`, the MIC in series [1] amounted to 4 µg/mL; in series [2] it was 1 µg/mL; in series [3], 2 µg/mL; in series [4] it was 1 µg/mL; in [5], 2 µg/mL; in series [6], 4 µg/mL. Further, the MIC in [7], in [8], in [9], in series [10], in series [11] and in [12] was 4 µg/mL throughout. Also, the MIC in [13], in [14] and in series [15] was over 32 µg/mL throughout. Further, the Activity entry in series [16] and in series [17] was “Toxic” throughout.
For `CC(C)=CCc1c(OC2CCCC2)cc(/C=C/c2ccc(C(F)(F)F)cc2)c(C(=O)O)c1O`, the MIC in [1], in [2], in series [3], in [4], in series [5] and in series [6] was 2 µg/mL in each case. Further, the MIC in series [7], in series [8], in series [9], in series [10], in series [11] and in [12] was 2 µg/mL in each case. The MIC in [13], in series [14] and in series [15] was over 32 µg/mL throughout. The Activity result in series [16] and in [17] was “Toxic” in each case.

The values above are taken from ChEMBL document CHEMBL4828717, “Synthetic cajaninstilbene acid derivatives eradicate methicillin-resistant Staphylococcus aureus persisters and biofilms” (Eur J Med Chem, 2021).
